Test results: patent US5834457A, “Method of modulating radical formation by mutant cuznsod enzymes” (The Regents of the University of California, priority 1996, dated 1998)
Blank lines part the entries; values can stand above or below the compound they belong to.

Tests used:
[1] = Hydroxyl radical production from H2O2 by the enzymes or free copper, EPR of DMPO-OH adduct; format: biochemical; conditions: for hydroxyl radical production (double integration of DMPO-OH signal): 1.25 μM protein or 2.5 μM CuSO4, 45 mM DMPO, 30 mM H2O2, pH 7.4
Experimental: Hydroxyl radical formation by mutant and wild type CuZnSODs was determined by measuring the amount of adduct formed when the radical scavenging agent 5,5'-dimethyl-1-pyrroline N-oxide (DMPO) was added to the hydroxyl radical forming reaction. The amount of the DMPO-OH radical adduct formed was determined by measurement of the unique EPR spectra signals of the adduct.
30 mM hydrogen peroxide was injected to start the reaction. […] EPR spectra were recorded on a Bruker ER 200 D at room temperature, operated at 9.5 GHz with a modulation frequency of 100 KHz.
The samples were prepared and handled, and all measurements executed, in a strictly oxygen-free atmosphere, to prevent radical scavenging by molecular oxygen. Buffers were treated with Chelex 100 (Biorad) to eliminate the possibility of contamination by trace metals. […] An aqueous flat cell (Wilmad) was used to hold the samples.

[2] = test system: CSM 14.1 cells; assay: Toxicity of DDC in transfected neural cells, all groups; format: cell-based, rat; conditions: DDC 1 mM or greater
Experimental: (§1) The conditionally-immortalized rat nigral neural cell line CSM 14.1 (M. Durand, et al., Soc. Neurosci. Abs. 16:40 (1990); and L. T. Zhong, et al., Proc. Natl. Acad. Sci. U.S.A. 90:4533 (1993)) was transfected with vectors carrying wild type CuZnSOD or the mutant CuZnSODs A4V, G37R, G41D, or G85R.
(§2) Next the […] efficacy of DDC was tested. Temperature-sensitive nigral neural cells (SCM 14.1) were transfected with wild type and A4V, G37R, G85R, and G41D mutant CuZnSOD constructs by methods described previously (Rabizadeh (1995), supra). Following selection in puromycin (7 μg/ml), cells were plated onto 96-well plates.

[3] = test system: CSM 14.1 cells overexpressing wild type CuZnSOD; assay: Neural cell culture model of FALS: apoptosis/viability after serum withdrawal; format: cell-based, rat
Experimental: as §1, §2
(§3) This was calculated as follows:
(§4) viability=[Vm(x)-Vm(0)]/[Vc(0)-Vm(0)]
(§5) Standard errors were computed by the delta method for computing the asymptotic standard error for the estimate of a nonlinear function (D. Colquhoun, Lectures on Biostatistics (Clarendon Press, 1971) pp. 39-42).

[4] = test system: CSM 14.1 cells expressing mutant CuZnSODs A4V, G37R, G41D, G85R; assay: as above; format: cell-based, rat; conditions: DDC 25-100 μM, all four mutants
Experimental: as §1, §2, §3, §4, §5

Compound: CCN(CC)C(=S)S [DDC, Diethyldithiocarbamate]
toxicity in all groups [2]: toxic
effect on viability ([3]; DDC 100 μM, 60 hours, serum-free media): no significant effect
effect on cell viability ([3]; DDC 500 μM): decreased the viability
effect on apoptosis ([3]; DDC 25-100 μM, serum withdrawal): no effect
inhibition of apoptosis induced by mutant CuZnSODs [4]: 30-70%

Compound: O=S(=O)([O-])[O-].[Cu+2] [CuSO4]
hydroxyl radical production (double integration of DMPO-OH signal) [1]: 1.9 µM

Compound: CuZnSOD mutant A4V: FALS-associated mutant human CuZnSOD A4V, recombinant, expressed in yeast
hydroxyl radical production (double integration of DMPO-OH signal) [1]: 15.6 µM
DMPO-OH signal relative to the wild type CuZnSOD signal ([1]; fully metallated enzyme, mean ± spread): 3.0±1.1 times
range of DMPO-OH signal relative to the wild type CuZnSOD signal ([1]; fully metallated enzyme, range over experiments): 2.1-5.7 times

Now from value to compound:

hydroxyl radical production (double integration of DMPO-OH signal) [1]: 3.2 µM
Compound: wild type CuZnSOD: recombinant human wild type copper-zinc superoxide dismutase expressed in Saccharomyces cerevisiae

hydroxyl radical production (double integration of DMPO-OH signal) [1]: 6.5 µM
Compound: CuZnSOD mutant G93A: FALS-associated mutant human CuZnSOD G93A, recombinant, expressed in yeast
